Structures are written as SMILES.

Data set [1] deals with Dio3. To be noted: in utero exposure to ethanol; Western blot, normalized to β-actin; pregnant Sprague-Dawley dams, last two weeks of gestation. For orientation: A western blot detects proteins with antibodies after separation by electrophoresis.
Another data set has as its system Gsα. Particulars: in utero exposure to ethanol; Western blot, normalized to β-actin; pregnant Sprague-Dawley dams, last two weeks of gestation.
In the next data set the test system is TRα. To be noted: in utero exposure to ethanol; Western blot, normalized to β-actin; pregnant Sprague-Dawley dams, last two weeks of gestation.
The next data set has as its system GR. To be noted: in utero exposure to ethanol; Western blot, normalized to β-actin; pregnant Sprague-Dawley dams, last two weeks of gestation.
Data set [2] relates to Dio3. To be noted: fetal and adult frontal cortex and hippocampus; thyroid hormone levels inversely affected.

Regarding `CCO` [ethanol], in the data set on Dio3 [1], the “Dio3 protein levels in placenta” value is recorded as “up-regulation”. In addition, the “Gsα protein levels in placenta” value in the data set on Gsα was “up-regulation”. Further, the “TRα protein levels in placenta” value with TRα is given as “down-regulation”. Moreover, the “GR protein levels in placenta” value in the data set on GR is “down-regulation”. The “Dio3 imprinting and total expression patterns” value in the data set with Dio3 [2] was “alters”.
